Reference: PMC6332026, “Synthesis and Pharmacochemistry of New Pleiotropic Pyrrolyl Derivatives” (Molecules, 2015)
Each block holds one compound with its values, some of them ahead of it.

Assays:
[1] = system: carrageenan-induced rat paw edema; design: method as in PMID 7714750; conditions: dose 0.44 mmol/kg; cited from earlier work
[2] = Interaction with the stable free radical DPPH (reducing activity); conditions: DPPH 50 μM
Procedure: 2,2-Diphenyl-1-picrylhydrazyl (DPPH) is a lipophilic, free, stable radical, which absorbs at 517 nm (violet color). Upon reduction, decolorization is observed that is stoichiometric to the number of received electrons and is representative of the antioxidant ability of compounds. […] This interaction, which indicates their radical scavenging ability in an iron-free system, was measured at 100 and 1000 μM after 20 and 60 min, whereas the final concentration of DPPH was stable at 50 μΜ.
[…] The absorbance was measured at 517 nm after 20 and 60 min at room temperature.

soybean lipoxygenase = target: T1, soybean lipoxygenase (Glycine max, UniProt P08170); test: Inhibition of soybean lipoxygenase (UV absorbance-based enzyme assay); type: biochemical; conditions: pH 9.00, read-out: LOX IC50
T1 construct: purchased Sigma Chemical, Co. (St. Louis, MO, USA)
T1 sequence (P08170 1-839): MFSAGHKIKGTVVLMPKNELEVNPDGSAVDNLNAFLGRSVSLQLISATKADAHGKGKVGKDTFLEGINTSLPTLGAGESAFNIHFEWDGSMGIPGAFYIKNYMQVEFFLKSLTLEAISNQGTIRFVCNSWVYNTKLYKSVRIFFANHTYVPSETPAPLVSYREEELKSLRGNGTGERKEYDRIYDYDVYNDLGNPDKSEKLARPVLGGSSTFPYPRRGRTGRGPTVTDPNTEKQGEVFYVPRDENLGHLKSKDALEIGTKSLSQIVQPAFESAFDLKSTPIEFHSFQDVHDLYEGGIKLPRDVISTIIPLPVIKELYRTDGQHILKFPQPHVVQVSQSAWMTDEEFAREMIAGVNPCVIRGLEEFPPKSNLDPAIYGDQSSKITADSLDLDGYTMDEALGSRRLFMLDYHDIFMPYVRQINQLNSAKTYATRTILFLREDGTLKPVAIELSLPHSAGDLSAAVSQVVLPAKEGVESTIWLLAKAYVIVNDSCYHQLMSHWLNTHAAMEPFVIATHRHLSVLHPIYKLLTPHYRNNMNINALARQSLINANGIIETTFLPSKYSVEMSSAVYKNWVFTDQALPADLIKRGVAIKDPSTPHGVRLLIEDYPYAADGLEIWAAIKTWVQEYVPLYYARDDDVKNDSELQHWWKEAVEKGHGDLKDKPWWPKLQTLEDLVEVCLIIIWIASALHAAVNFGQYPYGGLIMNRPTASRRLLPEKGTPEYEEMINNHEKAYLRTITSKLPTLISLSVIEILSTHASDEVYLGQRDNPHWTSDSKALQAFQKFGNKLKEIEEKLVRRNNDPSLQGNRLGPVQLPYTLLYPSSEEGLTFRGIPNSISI
Procedure: Lipoxygenase catalyzes the first two steps in the metabolism of arachidonic acid to leukotrienes. LTB4 generation is important in the pathogenesis of neutrophil-mediated inflammatory diseases with a marked relation to the severity of cardiovascular diseases, asthma and cancer. We evaluated the synthesized pyrroles for their ability to inhibit soybean LOX by the UV absorbance-based enzyme assay. […] The inhibition of COX-2, as a peroxidase, was determined by a colorimetric assay with the oxidation of N,N,N′,N′-tetramethyl-p-phenylenediamine (TMPD).
The tested compounds were dissolved in DMSO, and the final concentration was 100 μΜ. The compounds were incubated at room temperature with sodium linoleate as a substrate (0.1 mL) in a buffer solution of Tris:HCl (pH 9.00) and 0.2 mL of a solution of soybean lipoxygenase.

[3] = system: carrageenan-induced rat paw edema; test: Inhibition of rat paw edema induced by carrageenan; type: in vivo, Fischer 344 rats; conditions: Rattus norvegicus, ip; 0.01 mmol/kg body weight, intraperitoneally, 3.5 h; read-out: CPE % inhibition of rat paw edema induced by carrageenan
Procedure: The pyrrolyl derivatives, as well as their precursor chalcones were tested in vivo for the inhibition of rat paw edema induced by carrageenan. […] […]. For Compounds 2i, 2iii, 2iv and 2v, we determined their ED50 values. […]. The finding supports the primary idea of this design.
Edema was induced in the right hind paw of Fischer 344 rats (150–200 g). In the study, both males and females were included, with the exemption of pregnant females. The animals, which have been bred in our laboratory, were housed under standard conditions and received a diet of commercial food pellets and water ad libitum during maintenance. One hour before the onset of the experiment, food and water were removed. The tested compounds (dose 0.01 mmol/kg body weight) were diluted in water with a few drops of Tween 80, and they were administered intraperitoneally simultaneously with the intradermal injection of 0.1 mL 2% of carrageenan in water. The animals were euthanatized 3.5 h after the carrageenan administration. The difference between the weight of injected and uninjected paws was calculated for each animal and was compared to control animals, which were treated with water. Indomethacin was used as a reference compound in 0.01 mmol/kg. The results were expressed as the percent inhibition of the edema (CPE %).

trypsin = target: T2, trypsin (Bos taurus, UniProt P00760); test: Inhibition of the proteolytic activity of trypsin; type: biochemical; conditions: bovine albumin substrate, pH 7.6; read-out: TP IC50 (inhibition of trypsin)
T2 construct: purchased Sigma Chemical, Co. (St. Louis, MO, USA); host or cells: bovine pancreas
T2 sequence (P00760 24-246): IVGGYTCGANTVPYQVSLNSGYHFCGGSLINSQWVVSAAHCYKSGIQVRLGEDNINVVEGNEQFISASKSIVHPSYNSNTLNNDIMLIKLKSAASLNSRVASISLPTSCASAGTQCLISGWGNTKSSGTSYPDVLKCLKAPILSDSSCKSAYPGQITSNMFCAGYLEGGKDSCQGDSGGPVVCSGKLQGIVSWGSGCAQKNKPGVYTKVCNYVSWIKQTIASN
Description: Trypsin is an enzyme with an active role in inflammation. Thus, we studied the anti-proteolytic ability of the pyrrole derivatives, using salicylic acid as a reference compound. […] Comparing Compounds 2iv and 2v, the insertion of an electron-acceptor substituent (Cl) on the phenyl ring (substituent Ar^2) and the simultaneous increase of the volume of substituent Ar^2 (expressed as molar refractivity) led to an enhancement of the anti-proteolytic activity.
Carrageenan, type K, was commercially available. Cycloxygenase-2 (COX-2) and interleukin-6 (IL-6) EIA Kit, Item No. 583371 were purchased from Cayman. Trolox was obtained from Aldrich Chemical Co. (Milwaukee, WI, USA). All starting materials were obtained from commercial sources, and they were used without further purification.
The tested compounds (concentrations varying from 10 μΜ–100 μΜ in DMSO) were dissolved in a phosphate buffer (0.1 M K2HPO4–NaH2PO4·2H2O, pH = 7.6), and 0.2 mL of trypsin 0.075 mg/mL were added. The mixture was incubated at room temperature for 20 min, and then, 1 mL of bovine albumin (6 g/100 mL) was added. The mixture was incubated at 37 °C for 30 min. The reaction was stopped with the addition of 1 mL of trichloroacetic acid (5% w/w) Separation of the phases followed, with measurement of the supernatants at 280 nm at room temperature. IC50 values were determined.

SMILES: O=C(c1ccccc1)c1ccc[nH]1 [2-benzoylpyrrole]
inhibition of carrageenan-induced rat paw edema [1]: 34%

IC50 (soybean lipoxygenase): 190 µM
SMILES: Cc1ccc(C(=O)c2ccc(CC(=O)O)n2C)cc1 [Tolmetin, reference compound]
RA % (interaction with DPPH) ([2]; 100 μM compound, 20 min): 3%
RA % (interaction with DPPH) ([2]; 100 μM compound, 60 min): 3%
RA % (interaction with DPPH) ([2]; 1000 μM compound, 20 min): 4%
RA % (interaction with DPPH) ([2]; 1000 μM compound, 60 min): 9%
inhibition in vivo at 10 µmol/kg [3]: 76%

IC50 (trypsin): 100 µM
SMILES: O=C(O)c1ccccc1O [Salicylic acid, reference compound]

SMILES: O=C(c1ccccc1)c1cc[nH]c1 [3-benzoylpyrrole]
inhibition of carrageenan-induced rat paw edema [1]: 43%
